Measured values reported in patent US20030031690A1, “Cosmetic composition for preventing and treating acnes containing cryptotanshinone” (priority 2001, published 2003).
Converted amounts (≈) assume the structure as drawn.

What was measured:
Propionibacterium acnes = assay: Antibacterial ability against Propionibacterium acnes (MIC on BHI solid flat medium); format: cell-based; conditions: P. acnes, three days
Description: To measure the antibacterial ability of cryptotanshinone against Propionibacterium acnes (P. acnes hereinafter), P. acnes kept in a cold storage in original state was cultivated on a BHI (Brain Heart Infusion) solid flat medium three days before the beginning of experiment. On the day of experiment, the P. acnes previously cultivated was inoculated into BHI solid flat medium containing the predetermined concentration of cryptotanshinone. Three days later after that, the minimum inhibition concentration (MIC) is obtained by measuring the number of P. acnes. The experiment was conducted in the same manner as experimental example 5, except for using benzoyl peroxide instead of cryptotanshinone.

ears of mice = assay: Anti-inflammation effect, arachidonic acid-induced ear edema; format: in vivo; conditions: for Thickness of ear After applying agent / Thickness of ear Before applying agent: agent 0.3% in ethanol once a day for four days, average of 7 mice; for Thickness of ear After applying agent: 2 mg/ear arachidonic acid, one hour after; for Restraint rate: agent 0.3% in ethanol, (A − B)/A × 100 against comparative group
Experimental: When inflammation is generated due to P. acnes, become more serious. Accordingly, the effect of alleviating the inflammation due to acne is verified by assessing the anti-inflammatory effect of cryptotanshinone. The experiment is conducted by a method using arachidonic acid (A. Crummey, G. P. Harper, E. A. Boyle and F. R. Mangan. Inhibition of arachidonic acid-induced ear oedema as a model for assessing topical anti-inflammatory compound. Agents and Actions 1987; 20:69-76).
After washing both ears of mice with ethanol before applying the agent, 201 o f cryptotanshinone having a concentration of 0.3% is applied to the ears of mice belonging to an agent application group once a day for four days, while 201 o f ethanol is applied to mice in a comparative group. One hour after the last application, ethanol is applied to the left ears of mice and 2 mg/ear of arachidonic acid is applied to the right ears of mice. One hour after that, the degree of ear edema is repeatedly measured by micrometer three times for each ear. The left ears of mice in the agent application group are used as a comparative group for measuring the degree of inflammation being induced by the agent.
The anti-inflammatory effect is assessed by the degree that the edema in the agent application group is restrained by cryptotanshinone on the basis of the comparative group to which arachidonic acid is applied. The number of mice used for each group is seven and the value is an average of those of 7 mice.
The experiments are conducted in the same manner as experimental example 6, except for respectively using stearyl glycyrrhetinate and indomethacin instead of cryptotanshinone.

5 α-reductase = assay: Inhibition of 5 α-reductase (conversion of 3H-testosterone to dihydrotestosterone, HPLC); format: biochemical
Experimental: 30 l of Phosphate Buffered Saline (PBS/pH 6.6) is mixed with 101 of dithiothreitol, NADPH, and testosterone, into which radioactive isotopes are combined (3H-1, 2, 4, 5, 6, 7-testosterone), 401 of extract liquid of enzyme 5 α-reductase, and 20 l of cryptotanshinone having 0.001% of concentration. Next, the composition mentioned above is left at the normal temperature for 10 minutes so that the materials in the composition react to each other, and then the amount of converted dihydrotestosterone are measured by HPLC and a measuring instrument of radioisotope.
Inhibition rate (%)=[…].
The experiments are conducted in the same manner as experimental example 1, except for changing the concentration of cryptotanshinone as described in Table 1.

O=C(OOC(=O)c1ccccc1)c1ccccc1 [Benzoyl peroxide, reference compound]
MIC (Propionibacterium acnes; Cutibacterium acnes, 72 h): 500 to 1000 µg/mL (≈ 2.06 to 4.13 mM)

COc1ccc2c(c1)c(CC(=O)O)c(C)n2C(=O)c1ccc(Cl)cc1 [Indomethacin, indomethacin]
Thickness of ear After applying agent (ears of mice): 391 | Thickness of ear Before applying agent (ears of mice): 273 | Restraint rate (ears of mice): 46.6%

CCCCCCCCCCCCCCCCCCOC(=O)[C@@]1(C)CC[C@]2(C)CC[C@]3(C)C(=CC(=O)[C@@H]4[C@@]5(C)CC[C@H](O)C(C)(C)[C@@H]5CC[C@]43C)[C@@H]2C1 [Stearyl Glycyrrhetinate, stearyl glycyrrhetinate]
Thickness of ear After applying agent (ears of mice): 454 | Thickness of ear Before applying agent (ears of mice): 268 | Restraint rate (ears of mice): 15.8%

Cryptotanshinone
Inhibition rate (5 α-reductase; concentration of cryptotanshinone 0.001%): 19.1% | Inhibition rate (5 α-reductase; concentration of cryptotanshinone 0.01%): 36.0% | Inhibition rate (5 α-reductase; concentration of cryptotanshinone 0.1%): 45.9% | Inhibition rate (5 α-reductase; concentration of cryptotanshinone 1.0%): 100% | Thickness of ear After applying agent (ears of mice): 437 | Thickness of ear Before applying agent (ears of mice): 271 | Restraint rate (ears of mice): 24.9% | MIC (mole) (Propionibacterium acnes): 100-500 ppm
